Measurements from ChEMBL document CHEMBL1201862, “PubChem BioAssay data set” (2004).
Activity calls are given as the source filed them. Cut-off read from the data, not from the text of the source, for most assays here: active = IC50 of 10 µM or less and inactive = more.

Key:
Type in all cases: functional
[1] = molecular target: Mu-type opioid receptor (Homo sapiens, UniProt P35372); assay: SAR Analysis of Antagonists of the MOR Receptor using an Image-Based Assay - Set 3. [Related pubchem assays (depositor defined):AID1777, AID1785, AID1786, AID1966, AID2133, AID2136, AID2284, AID2285, AID2420]
[2] = molecular target: Delta-type opioid receptor (Homo sapiens, UniProt P41143); assay: SAR Analysis of Antagonists of the DOR Receptor using an Image-Based Assay - Set 3. [Related pubchem assays (depositor defined):AID1777, AID1785];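 note: U2OS cells expressing DOR1 and beta-arrestin GFP stimulated with 100 nM SNC80; imaging of GFP-tagged beta-arrestin moving into spots after receptor activation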
[3] = molecular target: T1, Kappa-type opioid receptor (Homo sapiens, UniProt P41145); assay: SAR analysis of small molecule antagonists of the kappa opioid receptor via a luminescent beta-arrestin assay - Set 3. [Related pubchem assays (depositor defined):AID1777, AID1778, AID1785, AID1786, AID1966, AID2133, AID2136, AID2285, AID2495]
[4] = molecular target: T1, Kappa-type opioid receptor; assay: SAR analysis of small molecule antagonists of the kappa opioid receptor via a luminescent beta-arrestin assay - Set 6. [Related pubchem assays (depositor defined):AID1777, AID1778, AID1785, AID1786, AID1966, AID2133, AID2136, AID2285]
[5] = molecular target: T1, Kappa-type opioid receptor; assay: SAR analysis of Antagonists of the Kappa Opioid Receptor (KOR) using an Image-Based Assay - Set 4. [Related pubchem assays (depositor defined):AID1777, AID1785]

T1 sequence (P41145 whole entry): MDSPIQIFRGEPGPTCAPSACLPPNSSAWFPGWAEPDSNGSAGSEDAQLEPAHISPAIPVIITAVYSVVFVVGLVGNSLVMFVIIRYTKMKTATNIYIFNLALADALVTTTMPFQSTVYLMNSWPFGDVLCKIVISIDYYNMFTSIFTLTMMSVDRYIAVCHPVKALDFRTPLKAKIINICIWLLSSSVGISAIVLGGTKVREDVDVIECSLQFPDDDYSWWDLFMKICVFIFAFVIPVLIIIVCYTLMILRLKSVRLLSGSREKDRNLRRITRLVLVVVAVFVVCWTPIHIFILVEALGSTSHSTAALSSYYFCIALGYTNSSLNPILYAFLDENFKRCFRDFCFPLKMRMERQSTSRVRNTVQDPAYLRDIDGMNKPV
Delta-type opioid receptor, sequence (P41143 whole entry): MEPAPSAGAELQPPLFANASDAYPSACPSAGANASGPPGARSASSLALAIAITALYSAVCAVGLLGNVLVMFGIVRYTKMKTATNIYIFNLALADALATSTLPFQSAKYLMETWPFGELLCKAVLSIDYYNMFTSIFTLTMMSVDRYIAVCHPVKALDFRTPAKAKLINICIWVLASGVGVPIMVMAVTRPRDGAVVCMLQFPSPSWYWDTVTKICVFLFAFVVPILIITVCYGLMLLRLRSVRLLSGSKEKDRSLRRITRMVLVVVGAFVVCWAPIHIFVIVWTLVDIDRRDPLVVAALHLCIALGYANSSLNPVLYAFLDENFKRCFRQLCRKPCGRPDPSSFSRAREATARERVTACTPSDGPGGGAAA
Mu-type opioid receptor, sequence (P35372 whole entry): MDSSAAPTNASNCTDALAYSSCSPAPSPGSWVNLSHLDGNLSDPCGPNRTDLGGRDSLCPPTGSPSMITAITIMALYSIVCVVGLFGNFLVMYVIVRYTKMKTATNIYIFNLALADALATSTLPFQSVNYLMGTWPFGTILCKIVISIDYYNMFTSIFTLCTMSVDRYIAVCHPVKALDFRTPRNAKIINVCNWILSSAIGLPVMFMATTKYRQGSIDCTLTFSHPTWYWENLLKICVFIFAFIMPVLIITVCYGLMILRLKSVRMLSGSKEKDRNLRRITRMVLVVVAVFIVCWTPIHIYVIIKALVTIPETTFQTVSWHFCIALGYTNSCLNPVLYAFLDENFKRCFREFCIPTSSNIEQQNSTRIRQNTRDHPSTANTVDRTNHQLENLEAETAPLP

IC50 [1]: > 32 µM (inactive)
IC50 [2]: > 32 µM (inactive)
IC50 [3]: 0.363 µM (active)
IC50 [4]: 1.01 µM (active)
IC50 [5]: 0.0696 µM (active)
Compound: Cc1ccnc2c1n1cccc1c(=O)n2CC(=O)NCCCN1CCN(c2ccc(Cl)cc2)CC1
